In patent publication US9226912B2, “Acetyltanshinone IIA (ATA) as anticancer agent” (Nanyang Technological University, priority 2011, dated 2016):

Assays:
MCF-7/HER2 cells = test: Growth inhibition of HER2 over-expressing cells at 72 h; type: cell-based
Text: The efficacy of ATA on MCF-7 cells with over-expressed HER2 protein was investigated.

BT474 = test: Growth inhibition at 72 h by MTT assay
MCF-10A = test: IC50 and LC50 of ATA at 48 h; type: cell-based; details: Homo sapiens, MCF-10A non-cancer breast cell line
[1] = IC50 and LC50 of ATA at 48 h; type: cell-based; details: human, MCF-10A cells (non-cancer breast cell line), MCF-10A non-cancer breast cell line
HeLa [2] = test: IC50 and LC50 of ATA at 48 h; type: cell-based; details: Homo sapiens, HeLa cervical cancer
MDA-MB-231 = test: Growth inhibition at 72 h by MTT assay
T47D = test: Growth inhibition at 72 h by MTT assay; type: cell-based; details: T47D (ER+)
[3] = Solubility relative to TIIA; type: physicochemical; details: in both DMSO and PBS
Protocol: A mixture of TIIA (2.04 g), sodium acetate (2.5 g), acetic anhydride (18 ml), and anhydrous zinc powder (6 g) is stirred in a boiling water bath for 3 h, then immediately filtrated by using a vacuum filtration system to remove the insoluble residues. The filtrate is diluted with water (300 ml), and then heated to boil. The resulting solution is cooled at room temperature and filtered to give a solid product (1.80 g). The product can be further crystallized using 95% ethanol to produce the final product (1.51 g) acetyltanshinone IIA (ATA) with chemical designation of 1,6,6-trimethyl-8,9-dihydro-10,11-diacetoxyl-7H-naphtho[1,2-g][1]benzofuran (FIG. 2). ATA appeared in white color, which is totally different from its original red color.

MDA-MB-435 cells = test: cells; type: cell-based; details: Homo sapiens, MDA-MB-435, 24 h, read-out: cell viability
Protocol: (A) ROS generation in various cancer cell lines was detected using H2DCFDA after 10 μM ATA treatment for 2 h. The number indicates the fold of increase in ROS level compared to control. (B) Antioxidant prevented ATA-induced MDA-MB-435 cell death. Various antioxidants at the indicated concentration were tested for their protective effects against ATA-induced MDA-MB-435 cell death. Cells were first pre-treated with each antioxidant for 1 h and then ATA was added into the culture medium in the presence of antioxidants. The cell viability was measured by sulforhodamine B (SRB) colorimetric assay for cytotoxicity determination (* p<0.01).
(A) PG prevented ATA-induced cell death. Three concentrations of PG were tested for their protective effects on ATA-induced cell death. The cell viability was measured by SRB assay. (* p<0.01). (B) PG protected ROS generation caused by ATA treatment. […] All the experiments were performed at least three times. The results presented in this figure are the average of three experiments. […]
Since the generation of ROS was detected in all six examined cell lines and it occurred only 2 h after ATA addition, which was at least 4-6 h ahead of Bax translocation, it was speculated that ATA-mediated ROS generation might be the cause for cell death. […] The percentage of cell death after 24 h of ATA treatment was measured using SRB cytotoxicity assay.

SK-N-SH = test: IC50 of ATA at 72 h; type: cell-based; details: Homo sapiens, SK-N-SH neuroblastoma
Protocol: (§1) The cytotoxcitiy of ATA was assessed in cancer cell lines and normal cells. In order to do so the IC50 of ATA at 72 h in multiple cancer cell lines or normal cell lines including muscle and fibroblast cells was evaluated.

IMR-90 (non-cancerous) = test: IC50 of ATA at 72 h; type: cell-based; details: Homo sapiens, IMR-90 fibroblast (normal lung cells)
Protocol: as §1

HepG2 = test: IC50 of ATA at 72 h; type: cell-based; details: Homo sapiens, HepG2 liver cancer cells
Protocol: as §1

Caco2 = test: IC50 of ATA at 72 h; type: cell-based; details: Homo sapiens, Caco-2, Caco2 colorectal adenocarcinoma
Protocol: as §1

HCT 15 = test: IC50 of ATA at 72 h; type: cell-based; details: Homo sapiens, HCT 15 colorectal adenocarcinoma
Protocol: as §1

A549 = test: IC50 of ATA at 72 h; type: cell-based; details: Homo sapiens, A549 lung cancer cells
Protocol: as §1

HeLa [4] = test: IC50 of ATA at 72 h; type: cell-based; details: Homo sapiens, HeLa cervical cancer cells
Protocol: as §1

K-562 = test: IC50 of ATA at 72 h; type: cell-based; details: Homo sapiens, K562, K-562 leukaemia cells
Protocol: as §1

C2C12 (non-cancerous) = test: IC50 of ATA at 72 h; type: cell-based; details: Mus musculus, C2C12 myoblast (normal muscle cells)
Protocol: as §1

HCT 116 = test: IC50 of ATA at 72 h; type: cell-based; details: Homo sapiens, HCT 116 colorectal adenocarcinoma
Protocol: as §1

[5] = system: Four types of cancer cells; test: ATA versus TIIA, cell viability by MTT assay after 48 h; type: cell-based; details: 10 μM or 20 μM
Protocol: Four types of cancer cells were treated with ATA or TIIA at either 10 μM or 20 μM and the cell viability was measured by MTT assay after 48 h of compound addition. * p<0.01.

SiHa = test: IC50 and LC50 of ATA at 48 h; type: cell-based; details: Homo sapiens, SiHa cervical cancer

For `CC(=O)Oc1c(OC(C)=O)c2c(C)coc2c2ccc3c(c12)CCCC3(C)C` [ATA, 1,6,6-trimethyl-8,9-dihydro-10,11-diacetoxyl-7H-naphtho[1,2-g][1]benzofuran], the IC50 (MCF-7/HER2 cells; Homo sapiens, MCF7, MCF-7/HER2 cells, 72 h) was 1000 ± 230 nM, the “sensitivity of MCF-7/HER2 cells compared with MCF-7 cells” value (MCF-7/HER2 cells; paclitaxel 1×10^−3 μM to 10 μM, ATA 0.78 μM to 6.25 μM) was “higher sensitivity to ATA” and the “IC50 ratio of tamoxifen/ATA” value (BT474; BT474 (ER+/HER2+), 72 h) was 6.2. For the same compound, the IC50 (BT474; Homo sapiens, BT-474, 72 h) was 1000 nM, the inhibition at 3.13 µM (BT474; Homo sapiens, BT-474, 72 h, read-out: growth inhibition rate) was 146% and the IC50 (MCF-10A) was 6640 nM. For the same compound, the CC50 at 48 h [1] was 16300 ± 4460 nM, the CC50 (HeLa [2]) was 10900 ± 1450 nM and the IC50 (HeLa [2]) was 1390 ± 130 nM. The IC50 (MDA-MB-231; Homo sapiens, MDA-MB-231, 72 h) was 7980 ± 180 nM, the inhibition at 3.13 µM (MDA-MB-231; Homo sapiens, MDA-MB-231, 72 h, read-out: growth inhibition rate) was 32.3% and the “IC50 value at 72 h lower in ER-positive than ER-negative cells” value (MDA-MB-231; MCF-7 and T47D versus MDA-MB-231) was 5.4-5.7 fold. For the same compound, the “IC50 ratio of tamoxifen/ATA” value (MDA-MB-231; MDA-MB-231 (ER−), 72 h) was 2.7, the “Ratio of ER−/ER+ 231/MCF-7” value (MDA-MB-231; ratio of IC50 at 72 h, MDA-MB-231 over MCF-7) was 5.4 and the “Ratio of ER−/ER+ 231/T47D” value (MDA-MB-231; ratio of IC50 at 72 h, MDA-MB-231 over T47D) was 5.7. The IC50 (T47D; Homo sapiens) was 1400 ± 200 nM, the “IC50 ratio of tamoxifen/ATA” value (T47D) was 6.7 and the “higher solubility than TIIA” value [3] was 22 fold. The viability at 5 µM (MDA-MB-435 cells) was 35%, the IC50 (SK-N-SH) was 1240 ± 120 nM and the IC50 (IMR-90 (non-cancerous)) was 15500 ± 710 nM. It also gave an IC50 (HepG2) of 4270 ± 730 nM, an IC50 (Caco2) of 2500 ± 450 nM and an IC50 (HCT 15) of 560 ± 80 nM. For the same compound, the IC50 (A549) was 810 ± 130 nM, the IC50 (HeLa [4]) was 690 ± 190 nM and the IC50 (K-562) was 1690 ± 340 nM. The IC50 (C2C12 (non-cancerous)) was 10200 ± 1440 nM, the IC50 (HCT 116) was 2280 ± 490 nM and the “growth inhibition effect compared with TIIA” value [5] was “stronger growth inhibition effect than TIIA”. For the same compound, the CC50 (SiHa) was 12300 ± 680 nM and the IC50 (SiHa) was 1960 ± 490 nM.
